Test results taken from article PMC12298648, “An Evaluation of the Cytotoxicity and Safety Profile of Usnic Acid for a Broad Panel of Human Cancers and Normal Cells with Respect to Its Enantiospecificity” (Molecules, 2025).
Values after ≈ are worked out from the molar mass of the structure shown.

How the values were obtained:
DLD-1 = assay: MTT viability assay, DLD-1 colon cancer cells; type: cell-based, human; settings: for Cell viability: DLD-1, 24 h; for IC50: Homo sapiens
Excerpt: (§1) Cell lines of different origins were used in the study and grouped as follows: prostate panel (human prostate carcinomas: DU145, derived from metastatic site: brain; grade IV PC3, derived from metastatic site: bone; LNCaP, derived from the metastatic site: lymph node; prostate epithelial, PNT2), colon panel (colorectal adenocarcinomas: HT29, originating from a primary tumor; Duke’s type C DLD-1, with the potential to lymph node metastasis; highly metastatic HCT116; colon epithelial cells CCD 841 CoN), thyroid panel (follicular thyroid carcinoma FTC133, anaplastic thyroid carcinoma 8505C, papillary thyroid carcinoma TPC-1, normal thyroid follicular epithelial Nthy-ori 3–1), breast panel (ER-positive breast adenocarcinoma MCF7, ER-negative breast adenocarcinoma MDA-MB-231, breast epithelial MCF10A), brain panel (neuroblastoma SH-SY5Y, glioblastoma U-87 MG, murine astrocytes C8D1A). All cell lines were purchased from Merck (Darmstadt, Germany).
(§2) Cells were grown under standard conditions (37 °C, 5% CO2) and culture media (DMEM/F12 for PNT2, PC3, FTC133, 8505 C, MDA-MB-231, TPC-1; DMEM Low Glucose for DU145; DMEM High Glucose for HCT116, DLD-1, SH-SY5Y, U87MG, C8D1A; MEM with NEAA for MCF7; MEM for CCD 841 CoN; McCoy’s for HT29; RPMI1640 with sodium pyruvate for LNCaP; DMEM/F12 with 20 ng/mL epidermal growth factor (EGF), 10 μg/mL insulin, 0.5 μg/mL hydrocortisone, 100 ng/mL cholera toxin) for MCF10A), supplemented with 10% fetal bovine serum (FBS) or 5% donor horse serum for MCF10A, and 1% antibiotics solution (10,000 U penicillin and 10 mg streptomycin/mL). The tested substances were prepared as 10 mg/mL stock solutions in DMSO and further diluted in the culture media to the working concentrations. Cells were treated with UA enantiomers at the concentration range of 0–50 µg/mL. The influence of DMSO on cell viability was also examined, with the final concentration […], and no toxic effect was noted.
(§3) The cells were seeded onto 96-well plates at a density of 1.5 × 10^4 cells/well. After 24 h UA enantiomers were added. Cell viability was determined after 24, 48, and 72 h by the MTT assay, as described previously. Doxorubicin was used as a reference cytostatic drug. All analyses were performed in triplicate; cell viability was expressed as % of control, untreated cells (mean ± SD), and IC50 values (concentration at which cell viability is inhibited by 50%), if possible.

WM793 cells = system: WM793 cells; design: method as in PMID 34577645; settings: WM793, 48 h; cited from earlier work
SH-SY5Y = assay: MTT viability assay, neuroblastoma SH-SY5Y cells; type: cell-based, human; settings: SHSY5Y, 24 h
Excerpt: as §1, §2, §3

CCD 841 CoN = assay: MTT viability assay, normal colon epithelial cells; type: cell-based, human; settings: for Cell viability: CCD 841 CoN, 24 h; for IC50: Homo sapiens, CCD-841CoN
Excerpt: as §1, §2, §3

PC3 = assay: MTT viability assay, PC3 prostate cancer cells; type: cell-based, human; settings: for IC50: Homo sapiens, PC-3; for Cell viability: PC3, 24 h
Excerpt: as §1, §2, §3
(§4) The selectivity index (SI) was calculated, if possible, by dividing the IC50 value obtained for non-cancerous cells line by the IC50 values obtained for appropriate cancer cell line, as described previously. […] The values above 3 indicate good selectivity.

FTC133 = assay: MTT viability assay, FTC133 follicular thyroid carcinoma cells; type: cell-based, human; settings: for Cell viability: FTC-133, 24 h; for IC50: Homo sapiens, FTC-133
Excerpt: as §1, §2, §3, §4

MDA-MB-231 = assay: MTT viability assay, MDA-MB-231 breast cancer cells; type: cell-based, human; settings: for IC50: Homo sapiens; for Cell viability: MDA-MB-231, 24 h
Excerpt: as §1, §2, §3, §4

DU145 = assay: MTT viability assay, DU145 prostate cancer cells; type: cell-based, human; settings: for Cell viability: DU145, 24 h; for IC50: Homo sapiens, DU-145
Excerpt: as §1, §2, §3, §4

TPC-1 = assay: MTT viability assay, TPC-1 papillary thyroid carcinoma cells; type: cell-based, human; settings: for IC50: Homo sapiens, TPC1; for Cell viability: TPC-1, 24 h
Excerpt: as §1, §2, §3, §4

## CC(=O)C1=C(O)C=C2Oc3c(C(C)=O)c(O)c(C)c(O)c3[C@]2(C)C1=O [UA(−), (−)-usnic acid]
DLD-1; 2.5 µg/mL
  Cell viability: 100.75 % of control
DLD-1; 5 µg/mL
  Cell viability: 97.99 % of control
DLD-1; 10 µg/mL
  Cell viability: 92.05 % of control
DLD-1; 20 µg/mL
  Cell viability: 81.25 % of control
DLD-1; 30 µg/mL
  Cell viability: 78.35 % of control
DLD-1; 40 µg/mL
  Cell viability: 77.75 % of control
DLD-1; 50 µg/mL
  Cell viability: 77.98 % of control
DLD-1; DLD-1, 48 h
  IC50: 44.3 µg/mL (≈ 129 µM)
DLD-1; DLD-1, 72 h
  IC50: 15.4 µg/mL (≈ 44.7 µM)
WM793 cells
  IC50: 52.09 µg/mL (≈ 151 µM)
SH-SY5Y; 2.5 µg/mL
  Cell viability: 96.79 % of control
SH-SY5Y; 5 µg/mL
  Cell viability: 99.17 % of control
SH-SY5Y; 10 µg/mL
  Cell viability: 98.10 % of control
SH-SY5Y; 20 µg/mL
  Cell viability: 96.67 % of control
SH-SY5Y; 30 µg/mL
  Cell viability: 92.62 % of control
SH-SY5Y; 40 µg/mL
  Cell viability: 98.57 % of control
SH-SY5Y; 50 µg/mL
  Cell viability: 99.40 % of control
CCD 841 CoN; 2.5 µg/mL
  Cell viability: 98.61 % of control
CCD 841 CoN; 5 µg/mL
  Cell viability: 98.89 % of control
CCD 841 CoN; 10 µg/mL
  Cell viability: 96.39 % of control
CCD 841 CoN; 20 µg/mL
  Cell viability: 99.72 % of control
CCD 841 CoN; 30 µg/mL
  Cell viability: 96.11 % of control
CCD 841 CoN; 40 µg/mL
  Cell viability: 96.94 % of control
CCD 841 CoN; 50 µg/mL
  Cell viability: 93.06 % of control
CCD 841 CoN; 48 h
  IC50: > 50 µg/mL
CCD 841 CoN; 72 h
  IC50: > 50 µg/mL
PC3; PC3, 48 h
  IC50: 37.8 µg/mL (≈ 110 µM)
PC3; PC3, 72 h
  IC50: 34.8 µg/mL (≈ 101 µM)
PC3; IC50 PNT2 / IC50 PC3, 48 h
  selectivity index (SI): 0.93
PC3; IC50 PNT2 / IC50 PC3, 72 h
  selectivity index (SI): 0.79
PC3; 2.5 µg/mL
  Cell viability: 102.94 % of control
PC3; 5 µg/mL
  Cell viability: 94.68 % of control
PC3; 10 µg/mL
  Cell viability: 91.59 % of control
PC3; 20 µg/mL
  Cell viability: 89.10 % of control
PC3; 30 µg/mL
  Cell viability: 76.52 % of control
PC3; 40 µg/mL
  Cell viability: 69.15 % of control
PC3; 50 µg/mL
  Cell viability: 68.91 % of control
FTC133; 2.5 µg/mL
  Cell viability: 108.51 % of control
FTC133; 5 µg/mL
  Cell viability: 106.14 % of control
FTC133; 10 µg/mL
  Cell viability: 87.63 % of control
FTC133; 20 µg/mL
  Cell viability: 89.56 % of control
FTC133; 30 µg/mL
  Cell viability: 93.33 % of control
FTC133; 40 µg/mL
  Cell viability: 86.67 % of control
FTC133; 50 µg/mL
  Cell viability: 83.25 % of control
FTC133; FTC133, 48 h
  IC50: > 50 µg/mL
FTC133; FTC133, 72 h
  IC50: 35.3 µg/mL (≈ 103 µM)
FTC133; IC50 Nthy ori 3-1 / IC50 FTC133, 72 h
  selectivity index (SI): 0.83
MDA-MB-231; MDA-MB-231, 48 h
  IC50: 41.4 µg/mL (≈ 120 µM)
MDA-MB-231; MDA-MB-231, 72 h
  IC50: 20.2 µg/mL (≈ 58.7 µM)
MDA-MB-231; 2.5 µg/mL
  Cell viability: 96.79 % of control
MDA-MB-231; 5 µg/mL
  Cell viability: 92.06 % of control
MDA-MB-231; 10 µg/mL
  Cell viability: 88.24 % of control
MDA-MB-231; 20 µg/mL
  Cell viability: 85.58 % of control
MDA-MB-231; 30 µg/mL
  Cell viability: 74.48 % of control
MDA-MB-231; 40 µg/mL
  Cell viability: 68.12 % of control
MDA-MB-231; 50 µg/mL
  Cell viability: 70.55 % of control
DU145; 2.5 µg/mL
  Cell viability: 99.84 % of control
DU145; 5 µg/mL
  Cell viability: 89.03 % of control
DU145; 10 µg/mL
  Cell viability: 82.15 % of control
DU145; 20 µg/mL
  Cell viability: 77.63 % of control
DU145; 30 µg/mL
  Cell viability: 68.28 % of control
DU145; 40 µg/mL
  Cell viability: 64.95 % of control
DU145; 50 µg/mL
  Cell viability: 65.86 % of control
DU145; DU145, 48 h
  IC50: 34.8 µg/mL (≈ 101 µM)
DU145; DU145, 72 h
  IC50: 18.6 µg/mL (≈ 54 µM)
DU145; IC50 PNT2 / IC50 DU145, 48 h
  selectivity index (SI): 1.02
DU145; IC50 PNT2 / IC50 DU145, 72 h
  selectivity index (SI): 1.49
TPC-1; TPC-1, 48 h
  IC50: > 50 µg/mL
TPC-1; TPC-1, 72 h
  IC50: 39.2 µg/mL (≈ 114 µM)
TPC-1; IC50 Nthy ori 3-1 / IC50 TPC-1, 72 h
  selectivity index (SI): 0.74
TPC-1; 2.5 µg/mL
  Cell viability: 96.85 % of control
TPC-1; 5 µg/mL
  Cell viability: 104.40 % of control
TPC-1; 10 µg/mL
  Cell viability: 96.79 % of control
TPC-1; 20 µg/mL
  Cell viability: 93.49 % of control
TPC-1; 30 µg/mL
  Cell viability: 91.95 % of control
TPC-1; 40 µg/mL
  Cell viability: 92.26 % of control
TPC-1; 50 µg/mL
  Cell viability: 92.38 % of control
